Results reported in US6455562B1, “Cyclic AMP-specific phosphodiesterase inhibitors” (Icos Corporation, priority 1999, dated 2002).
Where two headings read alike, the source gives them in different places.

What was measured:
recombinant human PDE4 [1] = conditions: reported, prior art; read-out: reported 50% Inhibitory Concentration (IC50) with respect to inhibiting recombinant human PDE4; cited from earlier work
recombinant human PDE4 [2] = tested on: T1, recombinant human PDE4; experiment: PDE4 inhibition, IC50 using recombinant human PDE4 (charcoal separation PDE assay); format: biochemical; conditions: read-out: IC50 value versus human recombinant PDE4
T1 construct: other: recombinant human PDE4
Method: The compounds of structural formula (II) were tested for an ability to inhibit PDE4. The ability of a compound to inhibit PDE4 activity is related to the IC50 value for the compound, i.e., the concentration of inhibitor required for 50% inhibition of enzyme activity. The IC50 value for compounds of structural formula (II) were determined using recombinant human PDE4. […]
Phosphodiesterase activity of the preparations was determined as follows. […] The [32P]5′-AMP or [32P]5′-GMP then was quantitatively converted to free [32P]phosphate and unlabeled adenosine or guanosine by the action of snake venom 5′-nucleotidase. […] PDE enzyme was present in quantities that yield <30% total hydrolysis of substrate (linear assay conditions). […] The reaction was stopped by addition of 200 μL of activated charcoal (25 mg/mL suspension in 0.1M NaH2PO4, pH 4) After centrifugation (750 X g for 3 minutes) to sediment the charcoal, a sample of the supernatant was taken for radioactivity determination in a scintillation counter and the PDE activity was calculated.

[3] = in vivo; cited from earlier work

| SMILES | IC50 (recombinant human PDE4 [1]) | also measured |
| --- | --- | --- |
| COC(=O)N1CC(c2ccc(OC)c(OC3CCCC3)c2)C(C)(C(C)=O)C1 (stereo not shown) [formula (I)] | ~2 nM | – |
| COc1ccc([C@@H]2CN(Cc3ccccc3)C[C@@]2(C)c2nn[nH]n2)cc1OC1CCCC1 [Example 1] | – | IC50 (recombinant human PDE4 [2]): 7900 nM |
| COc1ccc([C@@H]2CNC(=O)C2)cc1OC1CCCC1 (single isomer, unassigned) [(−)-enantiomer of rolipram, R-rolipram] | – | emetic potential relative to the (+)-enantiomer (S-rolipram) [3]: about ten-fold more emetic |
| COc1ccc(C2CNC(=O)C2)cc1OC1CCCC1 (stereo not shown) [Rolipram] | ~200 nM | – |
